Test: gradient 5% acetonitrile 3 min, to 50% in 2 min, to 85% in 15 min, held 3 min, 100 µL/min
Settings: column: Zorbax Extend-C18 2.1 x 50 mm; eluents: water / acetonitrile, 0.1% formic acid
Method in brief: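 Retention times of pure standards were taken from adduct peaks that were selected by computer and manually inspected. Over 3 months, mixtures of ~100 molecules were run by HPLC–quadrupole time-of-flight mass spectrometry in positive and negative ionization mode. The Zorbax Extend-C18 column (2.1 × 50 mm, 1.8 μm) ran at 100 μL/min in water and acetonitrile, each containing 0.1% formic acid, with 40 μL dead volume and 900 μL dwell volume.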

Row | SMILES | RP-LC retention time [s]
1 | CCOC(=O)C1CCN(c2ncccc2-c2nnc(-c3ccc(C)cc3)o2)CC1 | 1140
2 | COc1cc(OC)cc(N2N=NC3C(=O)N(c4ccc(F)cc4)C(=O)C32)c1 (stereo not given) | 907
3 | CC(C)Cc1nc2cccnc2n1C1CCN(C(=O)Nc2ccccc2)CC1 | 677
4 | CCNC(=O)C1CCCN(c2nc3ncn(CC(=O)Nc4ccc5c(c4)CCC5)c(=O)c3s2)C1 (stereo not given) | 717
5 | CCCN1CCCCc2cc(C(=O)NC)sc21 | 861
6 | Cc1nc2cccnc2n1CC1CCCN(S(=O)(=O)Cc2ccccc2)C1 (stereo not given) | 654
7 | Oc1ccc2c3c1O[C@H]1c4[nH]c5ccccc5c4C[C@@]4(O)C(C2)N(CC2CC2)CCC314 (stereo not given in full) | 692
8 | CCc1ccc(-n2nnc(C(=O)N3CCCCC3C)c2-c2cccnc2)cc1 (stereo not given) | 866
9 | O=C(Cn1cccc1-c1nc(-c2ccc3c(c2)OCO3)no1)Nc1ccc(F)cc1 | 994
10 | CC1CC(C)CN(CCCNC(=O)Cn2c(=O)c3cccn3c3ccccc32)C1 (stereo not given) | 620
11 | CC1(C(=O)NC2CCCCCCC2)CN(S(C)(=O)=O)CC(=O)N1c1ccc(F)cc1F (stereo not given) | 952
12 | O=c1c2cc3c(cc2nc(SCc2nc(-c4ccccc4)no2)n1Cc1ccccc1)OCO3 | 1240
13 | O=S(=O)(c1cccc2nsnc12)N1CC[C@@H]2COCCN(Cc3cccnc3)[C@@H]2C1 | 615
14 | Cc1cc2ccccc2n1CCNC(=O)C(=O)c1cn(CC(=O)N2CCCC2)c2ccccc12 | 1010
15 | CCCN(Cc1ccc(OC)c(OC)c1)Cc1cc(=O)n2cc(C)ccc2n1 | 611
16 | CCOc1cc(N2CCN(C(=O)c3cc(Cl)ccc3OC)CC2)nc(C)n1 | 610
17 | CCn1cc(C2=CCN(C(=O)NCc3cccc(F)c3)CC2)c2cccnc21 | 850
18 | COc1ccc(OC)c(NC(=O)CN2C(=O)C(C)(C)c3cc(C)ccc32)c1 | 915
19 | Cc1c(-c2ccnc(N3CCCCC3)n2)cnc2nc(-c3ccc(Cl)cc3)nn12 | 1400
20 | CCOc1ccc(-n2ccn3cc(-c4ccc(Br)cc4)nc3c2=O)cc1 | 954
21 | O=C(CCN1C(=O)c2cccnc2Sc2ccccc21)NCCc1c[nH]c2ccccc12 | 746
22 | COc1ccccc1-c1nc(C2CC(=O)N(c3ccc(F)c(Cl)c3)C2)no1 (stereo not given) | 1020

Row | SMILES | RP-LC retention time [s]
23 | CCc1ccc(C2=C(C)C(N3CCC(NC(=O)CCC(C)C)CC3)=NS2(=O)=O)cc1 | 935
24 | Cc1nc2cc(NC(=O)c3ccc(S(=O)(=O)N(C)CC4CCCO4)cc3)ccc2s1 (stereo not given) | 764
25 | COc1ccc(N2COc3ccc4c(c3C2)O/C(=C\c2ccco2)C4=O)cc1 | 700
26 | COc1ccccc1NC(=O)N1CCN(c2cc(C)nc(N3CCCC3)n2)CC1 | 673
27 | O=C(CN1CCN(Cc2ccccc2F)C1=O)NCc1ccc(N2CCOCC2)cc1 | 699
28 | COc1ccc(NC(=O)COc2nc(C)nc3ccccc23)c(OC)c1 | 708
29 | Cc1nn(-c2ccccc2)c(C)c1S(=O)(=O)N1CCC(C(=O)NC2CCCc3ccccc32)CC1 (stereo not given) | 1010
30 | Cc1cccn2c(Nc3ccccc3)c(-c3ccc(N4CCOCC4)cc3)nc12 | 684
31 | O=C(NCc1cccnc1)C1CCN(S(=O)(=O)c2ccc(-c3noc(C4CC4)n3)cc2)CC1 | 659
32 | Cc1nn(CC(=O)NC2CC2)c(=O)c2c(-n3cccc3)n(-c3cccc(F)c3)nc12 | 828
33 | CSc1ccc(CNC(=O)COc2nc(C)nc3ccccc23)cc1 | 734
34 | COc1cccc(-c2cc(=O)n3c4ccccc4n(CC(=O)Nc4ccc(F)cc4)c3n2)c1 | 980
35 | Fc1ccc(C2Cn3nnc(-c4nc(-c5ccc(Cl)cc5)no4)c3CO2)cc1 (stereo not given) | 1230
36 | OC(COCC(c1ccccc1)c1ccccc1)Cn1cnc2ccccc21 (stereo not given) | 639
37 | Cn1nc(CNC(=O)c2ccc(Br)cc2)c2ccccc21 | 840
38 | CN(C)c1ccc(C(=O)N2CCN(C(=O)c3nnn4c3COC(c3ccc(Cl)cc3)C4)CC2)cc1 (stereo not given) | 935
39 | CCOC(=O)COc1cc(-c2ccccc2)nc2ccc(NC(=O)Cc3cccs3)cc12 | 797
40 | O=C(Cn1nc(C(=O)N2CCCC2)c2ccccc21)Nc1cccc(C(F)(F)F)c1 | 912
41 | CN1C(=O)c2cc(S(=O)(=O)Nc3ccc(F)c(Cl)c3)ccc2Oc2cccnc21 | 962
42 | COCCN1C(=O)[C@H]2CN(S(=O)(=O)c3ccccc3)C[C@H]2C1=O | 712
43 | CCN1c2ccccc2C(=O)NC12CCN(C(=O)Nc1cc(Cl)ccc1OC)CC2 | 787
44 | O=C(NCc1cccc(Br)c1)C1CCN(C(=O)C2Sc3ccccc3NC2=O)CC1 (stereo not given) | 800

Row | SMILES | RP-LC retention time [s]
45 | CCn1nccc1-c1cccc(-c2noc(-c3ccsc3)n2)c1 | 1130
46 | O=C1NCCCCCN(C(=O)Nc2ccccc2F)[C@H]2CCC[C@@H]12 | 734
47 | CCNC(=O)CN1CCN(Cc2ccccc2F)C1=O | 658
48 | COC(=O)c1ccccc1Sc1c(-c2ccccc2)nc2ncccn12 | 875
49 | CSc1ccccc1CN1CCC(CNC(=O)C(=O)Nc2ccon2)CC1 | 558
50 | CCC(=O)Nc1ccc(-c2nc(-c3ccc(Cl)cc3)no2)cc1 | 1130
51 | Cc1cc(C(=O)N2CCOCC2)c2cccc(Cl)c2n1 | 682
52 | Cn1c(=O)n(C2CCN(C(=O)Cc3ccccc3)CC2)c2ncncc21 | 655
53 | O=C(Nc1cnc(N2CCCC2)nc1)c1ccc(F)c(Cl)c1 | 804
54 | O=C(C1=CN(c2ccc(F)c(F)c2)c2ccccc2S1(=O)=O)N1CCCCC1 | 1040
55 | CC(=O)N1CCc2cc(N3CC(C(=O)Nc4cc(Cl)ccc4F)CC3=O)ccc21 (stereo not given) | 768
56 | CCOC(=O)Cc1ccc(NC(=O)N2CCCC2c2cc(C)on2)cc1 (stereo not given) | 807
57 | CC(C)NC(=O)CN1CCN(C(=O)Nc2ccc(Cl)cc2)CC1=O | 669
58 | O=C(NC1CN2CCC1CC2)c1cc2ccoc2cn1 (stereo not given) | 620
59 | O=C(Cc1ccccc1Cl)NC1CCN(c2cc(-c3cccs3)[nH]n2)C1 (stereo not given) | 738
60 | O=S(=O)(NCCc1csc(-c2cccc(F)c2)n1)c1ccccc1Cl | 989
61 | CCCn1cc(CCNC(=O)Nc2ccc(Cl)cc2F)c2cccnc21 | 876
62 | CCOCC(=O)N1CCc2c(c(C(=O)N3CCCC(C(=O)Nc4ccccc4)C3)nn2C)C1 (stereo not given) | 668
63 | O=C(Cc1c[nH]c2ccccc12)N1CCC(c2noc(C3CC3)n2)C1 (stereo not given) | 744
64 | CCOc1nc2ccccc2nc1N1CCCC(C(=O)N2CCN(c3ccc(F)cc3)CC2)C1 (stereo not given) | 1300
65 | CN1CCC(NC(=O)c2n[nH]c3c2CN(C(=O)c2cc(F)cc(F)c2)CC3)CC1 | 597

Source: the METLIN SMRT retention time set (Domingo-Almenara et al. 2019)
